Assay results: US11802120B2, “Fused cyclic urea derivatives as CRHR2 antagonist” (RaQualia Pharma Inc., priority 2018, dated 2023)

target: T1, human CRHR2-alpha (Homo sapiens, UniProt Q13324); experiment: cAMP functional assay for human CRHR2 (LANCE Ultra cAMP, TR-FRET); type: cell-based; conditions: CHO-K1 cells expressing human CRHR2-alpha, agonist human urocortin2 at EC80, cAMP; read-out: IC50 against CRHR2
T1 sequence (Q13324 1-411): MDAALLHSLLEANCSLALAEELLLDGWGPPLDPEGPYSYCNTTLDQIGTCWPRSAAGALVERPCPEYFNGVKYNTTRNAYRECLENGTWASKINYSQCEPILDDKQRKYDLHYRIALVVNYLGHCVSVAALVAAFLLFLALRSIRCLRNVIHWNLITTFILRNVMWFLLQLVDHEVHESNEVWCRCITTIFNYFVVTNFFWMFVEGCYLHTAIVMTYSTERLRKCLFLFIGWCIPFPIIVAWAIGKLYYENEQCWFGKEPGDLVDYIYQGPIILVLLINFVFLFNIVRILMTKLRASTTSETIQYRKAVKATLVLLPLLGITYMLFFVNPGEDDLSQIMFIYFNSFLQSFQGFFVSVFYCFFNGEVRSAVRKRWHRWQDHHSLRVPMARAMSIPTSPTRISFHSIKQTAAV
Method in brief: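 IC50 values derive from percent inhibition of EC80 agonist-stimulated cAMP in CHO-K1 transfectants, with 0.5 mM IBMX present; the CRHR2 line was stimulated by human urocortin2 and the CRHR1 line by CRF.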

IC50, < 300 nM:
Cc1ncc(Cl)cc1C(=O)N[C@H]1CC[C@H](Cn2c(=O)n(-c3ccc(-c4nccs4)cc3)c3ccccc32)CC1 [Example 518, 5-chloro-2-methyl-N-((1r,4r)-4-((2-oxo-3-(4-(thiazol-2-yl)phenyl)-2,3-dihydro-1H-benzo [d]imidazol-1-yl)methyl)cyclo-hexyl)nicotinamide]
Cc1ncc(Cl)cc1C(=O)N[C@H]1CC[C@H](Cn2c(=O)n(-c3cnc4ccccc4c3)c3cccnc32)CC1 [Example 359, 5-chloro-2-methyl-N-((1r,4r)-4-((2-oxo-1-(quinolin-3-yl)-1H-imidazo[4,5-b]pyridin-3(2H)-yl)methyl)cyclohexyl) nicotinamide]
COc1ccc(-n2c(=O)n(C[C@H]3CC[C@H](NC(=O)c4c5c(nn4C)CCCC5)CC3)c3ccccc32)cn1 [Example 221, N-((1r,4r)-4-((3-(6-methoxy-pyridin-3-yl)-2-oxo-2,3-dihydro-1H-benzo[d]imidazol-1-yl)methyl)cyclohexyl)-2-methyl-4,5,6,7-tetrahydro-2H-indazole-3-carboxamide]
Cc1ncc(Cl)cc1C(=O)N[C@H]1CC[C@H](Cn2c(=O)n(-c3cnc4c(C)n[nH]c4c3)c3ccccc32)CC1 [Example 172, 5-chloro-2-methyl-N-((1r,4r)-4-((3-(3-methyl-1H-pyrazolo[4,3-b]pyridin-6-yl)-2-oxo-2,3-dihydro-1H-benzo[d]imidazol-1-yl)methyl)cyclohexyl)nicotinamide]
Cn1ccc(-c2cccc(-n3c(=O)n(C[C@H]4CC[C@H](NC(=O)c5cc(Cl)cnc5C(F)F)CC4)c4ccccc43)c2)n1 [Example 700, 5-chloro-2-(difluoromethyl)-N-((1r,4r)-4-((3-(3-(1-methyl-1H-pyrazol-3-yl)phenyl)-2-oxo-2,3-dihydro-1H-benzo[d]imidazol-1-yl)methyl)cyclohexyl) nicotinamide]
Cn1cc(-c2cc(-n3c(=O)n(C[C@H]4CC[C@H](NC(=O)c5cc(Cl)cnc5C(F)F)CC4)c4ccccc43)ccn2)cn1 [Example 699, 5-chloro-2-(difluoromethyl)-N-((1r,4r)-4-((3-(2-(1-methyl-1H-pyrazol-4-yl)pyridin-4-yl)-2-oxo-2,3-dihydro-1H-benzo [d]imidazol-1-yl)methyl)cyclo-hexyl)nicotinamide]
CNc1ccc(-n2c(=O)n(C[C@H]3CC[C@H](NC(=O)c4cc(Cl)cnc4C(F)(F)F)CC3)c3ccc(F)cc32)cn1 [Example 705, 5-chloro-N-((1r,4r)-4-((5-fluoro-3-(6-(methylamino)pyridin-3-yl)-2-oxo-2,3-dihydro-1H-benzo[d]imidazol-1-yl)methyl)cyclo-hexyl)-2-(trifluoromethyl) nicotinamide]
O=C(N[C@H]1CC[C@H](Cn2c(=O)n(-c3ccc4ncccc4c3)c3cccnc32)CC1)c1cc(Cl)cnc1C(F)F [Example 361, 5-chloro-2-(difluoromethyl)-N-((1r,4r)-4-((2-oxo-1-(quinolin-6-yl)-1H-imidazo[4,5-b]pyridin-3(2H)-yl)methyl)cyclohexyl) nicotinamide]
Cc1ncc(Cl)cc1C(=O)N[C@H]1CC[C@H](Cn2c(=O)n(-c3ccc(C4=CCOCC4)nc3)c3ccccc32)CC1 [Example 84, 5-chloro-N-((1r,4r)-4-((3-(6-(3,6-dihydro-2H-pyran-4-yl)pyridin-3-yl)-2-oxo-2,3-dihydro-1H-benzo[d]imidazol-1-yl)methyl)cyclohexyl)-2-methylnicotinamide]
O=C(N[C@H]1CC[C@H](Cn2c(=O)n(-c3ccc(N4CCCC4=O)cn3)c3ccccc32)CC1)c1cc(Cl)cnc1C(F)F [Example 767, 5-chloro-2-(difluoromethyl)-N-((1r,4r)-4-((2-oxo-3-(5-(2-oxopyrrolidin-1-yl)pyridin-2-yl)-2,3-dihydro-1H-benzo [d]imidazol-1-yl)methyl)cyclohexyl)nicotinamide]
